# Starred links: 1 amine or outer side, 2 acyl side, 3 side chain; linkers in the order of their positions; H or OH if unused. Positions of bridges follow the written chain, without caps; N, C: chain ends. Non-standard residues stand in square brackets, D forms with d. Residues, ends and D or L forms follow the SMILES beside them. *: point of attachment. hPhe(3-Cl-4-CF3) = N[C@@H](CCc1ccc(C(F)(F)F)c(Cl)c1)C(=O)O; hPhe(3-F,4-CF3) = N[C@@H](CCc1ccc(C(F)(F)F)c(F)c1)C(=O)O; X5 = CC(C)(C)NC(=O)COC[C@H](CC(=O)[*:1])N[*:2]; NMePhe(3-F) = CN[C@@H](Cc1cccc(F)c1)C(=O)O; hPhe(3-Cl) = N[C@@H](CCc1cccc(Cl)c1)C(=O)O; hPhe(4-Cl) = N[C@@H](CCc1ccc(Cl)cc1)C(=O)O; NMedβ3hAla = C[C@H](CC(=O)[*:2])N(C)[*:1]; NMeGly(cPent) = CN[C@H](C(=O)O)C1CCCC1; Pro(4,4-F2) = O=C(O)[C@@H]1CC(F)(F)CN1; NMeCha = CN[C@@H](CC1CCCCC1)C(=O)O; NMeChg = CN[C@H](C(=O)O)C1CCCCC1; NMeD = CN[C@@H](CC(=O)O)C(=O)O; NMeL = CN[C@@H](CC(C)C)C(=O)O; NMeV = CN[C@H](C(=O)O)C(C)C; d(β3hA) = C[C@@H](N)CC(=O)O; NMeS = CN[C@@H](CO)C(=O)O; hSer = N[C@@H](CCO)C(=O)O; Morpholide = C1CN(*)CCO1; NMeA = CN[C@@H](C)C(=O)O; NMeAib = CNC(C)(C)C(=O)O; Piperidide = C1CCN(*)CC1; Ac5c = NC1(C(=O)O)CCCC1; Aze = O=C(O)[C@@H]1CCN1; Ac4c = NC1(C(=O)O)CCC1; Nleu = CC(C)CNCC(=O)O; X47 = Fc1cncc(C*)c1; Sar = CNCC(=O)O; Propyl = CCC*
# Target: T1, Kras and SOS1 (biotin-tagged human Kras loaded with GDP, His-tagged human SOS1) (Homo sapiens, UniProt P01116, G12D)
# T1 construct: made in house; host or cells: E. coli (stated for Kras only)
# T1 sequence (P01116 1-188 isoform P01116-2 G12D): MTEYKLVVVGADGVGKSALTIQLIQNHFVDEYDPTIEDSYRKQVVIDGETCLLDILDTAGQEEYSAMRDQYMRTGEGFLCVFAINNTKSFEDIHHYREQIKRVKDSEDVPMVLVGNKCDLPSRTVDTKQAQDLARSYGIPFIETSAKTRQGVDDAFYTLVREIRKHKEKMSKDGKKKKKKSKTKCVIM
# Experiment: Protein-protein interaction inhibition between Kras and SOS1 (KrasGl2D-SOS PPI) using AlphaScreen
# Type: binding
# Details: AlphaScreen; biotin-tagged human Kras loaded with GDP, His-tagged human SOS1; read-out: KRAS G12D-SOS PPI IC50
# Procedure, shortened: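 Binding between SOS1 and Kras is detected as bead-proximity luminescence: illuminate Ni-conjugated donors (680 nm), collect 520-620 nm emission from streptavidin-conjugated acceptors; Kras carries biotin and GDP loaded after purification, SOS1 carries a His tag.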
row,Compound,IC50 [nM]
1,COCC[C@@H]1NC(=O)[C@H](CC(C)C)N(C)C(=O)C[C@@H](C(=O)N2CCCCC2)N(C)C(=O)[C@H](C2CCCCC2)N(C)C(=O)C2(CCCC2)NC(=O)[C@@H]2CCCN2C(=O)[C@H](CCc2ccc(C(F)(F)F)c(Cl)c2)NC(=O)CN(C)C(=O)[C@H](CC2CCCCC2)N(C)C(=O)CN(C)C(=O)CN(C)C1=O [Compound 941] ([NMeL][hSer](Me)[Sar][Sar][NMeCha][Sar][hPhe(3-Cl-4-CF3)]P[Ac5c][NMeChg][NMeD]-Piperidide; lactam N-11),3.3
2,CC[C@H](C)[C@@H]1NC(=O)[C@H](C)N(C)C(=O)C[C@@H](C(=O)N2CCCCC2)N(C)C(=O)[C@H](C(C)C)N(C)C(=O)C2(CCCC2)NC(=O)[C@H](Cc2cccc(F)c2)N(C)C(=O)[C@H](CCc2ccc(C(F)(F)F)c(Cl)c2)NC(=O)CN(C)C(=O)[C@H](CC2CCCCC2)N(C)C(=O)CN(C)C(=O)CN(C)C1=O [Compound 945] ([NMeA]I[Sar][Sar][NMeCha][Sar][hPhe(3-Cl-4-CF3)][NMePhe(3-F)][Ac5c][NMeV][NMeD]-Piperidide; lactam N-11),9.8
3,CC[C@H](C)[C@@H]1NC(=O)[C@H](CC(C)C)N(C)C(=O)C[C@@H](C(=O)N2CCCCC2)N(C)C(=O)[C@H](C2CCCCC2)N(C)C(=O)C2(CCCC2)NC(=O)[C@H](COCc2cncc(F)c2)N(C)C(=O)[C@H](CCc2ccc(C(F)(F)F)c(Cl)c2)NC(=O)CN(C)C(=O)[C@H](CC2CCCCC2)N(C)C(=O)CN(C)C(=O)CN(C)C1=O [Compound 950] ([NMeL]I[Sar][Sar][NMeCha][Sar][hPhe(3-Cl-4-CF3)][NMeS](X47)[Ac5c][NMeChg][NMeD]-Piperidide; lactam N-11),9
4,CC[C@H](C)[C@@H]1NC(=O)[C@H](CC(C)C)N(C)C(=O)C[C@@H](C(=O)N2CCCCC2)N(C)C(=O)[C@H](C(C)C)N(C)C(=O)C2(CCCC2)NC(=O)[C@@H]2CCCN2C(=O)[C@H](CCc2ccc(Cl)cc2)NC(=O)CN(C)C(=O)[C@H](CC2CCCCC2)N(C)C(=O)[C@@H]2CCCN2C(=O)CN(C)C1=O [Compound 953] ([NMeL]I[Sar]P[NMeCha][Sar][hPhe(4-Cl)]P[Ac5c][NMeV][NMeD]-Piperidide; lactam N-11),180
5,CC[C@H](C)[C@@H]1NC(=O)[C@H](C)N(C)C(=O)C[C@@H](C(=O)N2CCCCC2)N(C)C(=O)[C@H](C2CCCCC2)N(C)C(=O)C2(CCCC2)NC(=O)[C@@H]2CCCN2C(=O)[C@H](CCc2cccc(Cl)c2)NC(=O)CN(C)C(=O)[C@H](CC2CCCCC2)N(C)C(=O)CN(C)C(=O)CN(C)C1=O [Compound 954] ([NMeA]I[Sar][Sar][NMeCha][Sar][hPhe(3-Cl)]P[Ac5c][NMeChg][NMeD]-Piperidide; lactam N-11),1.9
6,CC[C@H](C)[C@@H]1NC(=O)[C@H](CC(C)C)N(C)C(=O)C[C@@H](COCC(=O)NC(C)(C)C)NC(=O)[C@H](C(C)C)N(C)C(=O)C2(CCCC2)NC(=O)[C@@H]2CCCN2C(=O)[C@H](CCc2ccc(C(F)(F)F)c(Cl)c2)NC(=O)CN(C)C(=O)[C@H](CC2CCCCC2)N(C)C(=O)CN(C)C(=O)CN(C)C1=O [Compound 955] ([NMeL]I[Sar][Sar][NMeCha][Sar][hPhe(3-Cl-4-CF3)]P[Ac5c][NMeV]; linker N-C via X5),26
7,"CC[C@H](C)[C@@H]1NC(=O)[C@H](CC(C)C)N(C)C(=O)C[C@@H](C)N(C)C(=O)[C@H](C2CCCC2)N(C)C(=O)C2(CCC2)NC(=O)[C@@H]2CC(F)(F)CN2C(=O)[C@H](CCc2ccc(C(F)(F)F)c(Cl)c2)NC(=O)CN(C)C(=O)[C@H](CC2CCCCC2)N(C)C(=O)CN(C)C(=O)CN(C)C1=O [Compound 962] (cyclo([Ac4c][NMeGly(cPent)][NMedβ3hAla][NMeL]I[Sar][Sar][NMeCha][Sar][hPhe(3-Cl-4-CF3)][Pro(4,4-F2)]))",7.8
8,"CC[C@H](C)[C@@H]1NC(=O)[C@H](CC(C)C)N(C)C(=O)C[C@@H](C(=O)N2CCCCC2)N(C)C(=O)[C@H](CC(C)C)NC(=O)C(C)(C)N(C)C(=O)[C@H](CC(C)C)NC(=O)[C@H](CCc2ccc(C(F)(F)F)c(F)c2)NC(=O)CN(C)C(=O)[C@H](CC2CCCCC2)N(C)C(=O)CN(C)C(=O)CN(C)C1=O [Compound 969] ([NMeL]I[Sar][Sar][NMeCha][Sar][hPhe(3-F,4-CF3)]L[NMeAib]L[NMeD]-Piperidide; lactam N-11)",2
9,CC[C@H](C)[C@@H]1NC(=O)[C@H](CC(C)C)N(C)C(=O)C[C@@H](C)NC(=O)[C@H](C(C)C)N(C)C(=O)C2(CCCC2)NC(=O)[C@@H]2CCCN2C(=O)[C@H](CCc2ccc(C(F)(F)F)c(Cl)c2)NC(=O)CN(C)C(=O)[C@H](CC2CCCCC2)N(C)C(=O)CN(C)C(=O)CN(CC(C)C)C1=O [Compound 970] (cyclo([Ac5c][NMeV][d(β3hA)][NMeL]I[Nleu][Sar][NMeCha][Sar][hPhe(3-Cl-4-CF3)]P)),250
10,CCCOC[C@H]1C(=O)N(C)CC(=O)N[C@@H](CCc2ccc(C(F)(F)F)c(Cl)c2)C(=O)N2CCC[C@H]2C(=O)NC2(CCCC2)C(=O)N(C)[C@@H](C2CCCC2)C(=O)N(C)[C@H](C(=O)N2CCOCC2)CC(=O)N(C)[C@@H](CC(C)C)C(=O)N[C@@H]([C@@H](C)CC)C(=O)N(C)[C@@H](C)C(=O)N2CC[C@H]2C(=O)N1C [Compound 974] ([NMeL]I[NMeA][Aze][NMeS](Propyl)[Sar][hPhe(3-Cl-4-CF3)]P[Ac5c][NMeGly(cPent)][NMeD]-Morpholide; lactam N-11),0.91

# Reference: patent US12371454B2, “Cyclic peptide compound having Kras inhibitory action” (priority 2019, dated 2025)
